In ChEMBL document CHEMBL5727282, “Dihydropyrrolopyridine inhibitors of ROR-gamma” (2019) one finds IC50 data, which are given here for 1 compound.

For this experiment, the target named is T1, Nuclear receptor ROR-gamma (Homo sapiens, UniProt P51449).
T1 sequence (P51449 whole entry): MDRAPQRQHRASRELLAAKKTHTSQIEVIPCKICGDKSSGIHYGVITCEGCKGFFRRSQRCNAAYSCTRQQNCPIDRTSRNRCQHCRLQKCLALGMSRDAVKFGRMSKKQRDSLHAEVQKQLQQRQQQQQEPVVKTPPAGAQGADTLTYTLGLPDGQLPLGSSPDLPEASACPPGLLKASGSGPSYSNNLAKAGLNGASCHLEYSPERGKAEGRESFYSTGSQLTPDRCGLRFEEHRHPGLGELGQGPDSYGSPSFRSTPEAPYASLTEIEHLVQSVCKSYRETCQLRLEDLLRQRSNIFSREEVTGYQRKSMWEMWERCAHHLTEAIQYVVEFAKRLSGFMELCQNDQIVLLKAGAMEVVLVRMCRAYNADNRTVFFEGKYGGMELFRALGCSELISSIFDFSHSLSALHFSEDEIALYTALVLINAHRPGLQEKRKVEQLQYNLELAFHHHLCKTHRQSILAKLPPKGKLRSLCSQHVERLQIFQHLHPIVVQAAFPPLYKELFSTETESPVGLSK
The experiment is described as follows: ROR gamma t 5xRORE Assay in Jurkat Cells (Assay 2): Compounds of the present invention were tested for ROR gamma inverse agonist activity in a cell-based, transcriptional activity assay. […] (Promega, Cat. # N1021) using KpnI and HindIII restriction sites. […] Luciferase activity in the conditioned supernatants was determined with NanoGlo assay reagents (Promega, Cat.# N1130).

`CCS(=O)(=O)c1ccc(C2(NC(=O)c3cnc4c(c3)CN(Cc3ccc(C(F)(F)F)cc3)[C@H]4C(C)C)CC2)nc1`: the IC50 was below 100 nM.
